Like-named read-outs stand apart in the source and are kept apart here.
Experiments:
[1] = system: pathological sputum of bronchitic rabbits; assay: Mucus regulating properties in bronchitic rabbits (sputum AUC as % compared to bronchitic controls); type: in vivo, male New Zealand white rabbits; conditions: for Fucose (mg/ml), AUC as a 100% compared to bronchitic controls / Galactose (mg/ml), AUC as a 100% compared to bronchitic controls / Mucus production (ml/kg), AUC as a 100% compared to bronchitic controls / Phospholipids (mg/ml), AUC as a 100% compared to bronchitic controls / Protein (mg/ml), AUC as a 100% compared to bronchitic controls / Sialic acid (mg/ml), AUC as a 100% compared to bronchitic controls / Viscosity (cps), AUC as a 100% compared to bronchitic controls: Table 2, equimolecular amounts to S-carboxymethyl cysteine; for mucus regulating activity (in words): rabbit, in vivo; for mucus regulating effectiveness compared with carboxymethylcysteine: dosage level 0.01-0.08M vs 0.153M carboxymethylcysteine
Method: The animals are submitted to inhalation of a 5% H2 SO3 aqueous solution by aerosol (exposition of 3 hours a day for 3 alternate days), to induce a chronic bronchial inflammatory disease which causes a production of pathological sputum in the bronchial tree.
Aim of the experiments is to evaluate modifications of selective parameters such as dry weight of the sputum, viscosity, content in proteins, phospholipids, galactose, sialic acid and fucose, induced in this pathological sputum by pharmacological treatment with the compounds of the invention.
To this purpose, the sputum produced in the bronchial tree is collected daily, through a "T" shaped glass cannula, inserted in the trachea, before and after oral twice a day (9.00 a.m. and 4.00 p.m.) treatment with one of the compounds of the invention.
The schedule treatment procedure is shown in the following Scheme 1: [drawing 21] where 0 indicates the day of implantation of the tracheal cannula; -7-5-3 indicate the days of H2 SO3 treatment (H); 1, 2, 3, 4 indicate the days of oral administration of the compounds of the invention (T) and the time of mucus collection (M).
The mucus collected in day 1 in the morning is considered as a blank; 7 indicates the day of the animal sacrifice after the mucous collection.
The sputum samples are stored in the freezer (-20° C.) until the investigation of biological and rheological parameters is carried out.
The samples are investigated for relative viscosity, measured at 37° C. with a Brookfield viscometer (model LT VD) equipped with a 1,565° cone-plate, and aliquoted for biochemical analysis of protein, phospholipids, galactose, sialic acid and fucose contents. Dry weight of the mucus is also determined. For each parameter, cumulative data are referred to a seven days period after the beginning of the treatment and they are extrapolated using the AUC method (area under curve) calculated by the trapazoidal rule. Finally the data are compared with data obtained from controls (vehicle treatment), non bronchitic rabbits (vehicle treatment) and positive controls bronchitic rabbits treated with 0.153M […].

[2] = system: cough induced by citric acid aerosol in guinea pigs; assay: Guinea pig cough test (citric acid aerosol, Charlier procedure); type: in vivo
Method: (§1) The techniques described by Charlier et al. (Arch. Int. Pharmacodyn. 134, 306, 1961) and by Stefko et al. (J. Pharm. Exp. Therap., 108, 217, 1953), adapted with minor modifications, are used to investigate the antitussive properties of the compounds of the invention. Codeine phosphate is used as positive reference compound.
According to the Charlier procedure guinea pigs are exposed to a citric acid aerosol (7.5%) and cough is recorded 60 minutes after the antitussive treatment by i.p. route. Male animals of 300-400 g pigs are placed in perspex box (20×30×30 cm) connected to an aerosol compressor; the animals are subjected to a citric acid saturated atmosphere, 60 minutes after the i.p. injection of a compound of the invention (0.1 and 0.3M solutions; 1 ml/kg).
The total number of cough strokes and the delay of the first cough are recorded during the first five minutes.
Five guinea pigs are used for each dose level and the results are compared with controls (vehicle treatment) and codeine phosphate 0.07M solution (standard treatment).
ED50 and the corresponding delay of first cough stroke are calculated.
The data obtained by i.p. administration are confirmed by oral administration.

[3] = system: cough induced by electric stimulation in dogs; assay: Dog cough test (cough induced by electric stimulation, Stefko procedure); type: in vivo, conscious mongrel dogs
Method: as §1
In the Stefko procedure, conscious mongrel dogs (15±3 kg body weight) are used; the compounds of the invention are tested for their ability to inhibit cough induced by electric stimulation.
Under general anesthesia, two insulated nichrome wires (0.4 mm diameter) are surgically implanted into the submucosa of the trachea.
About two days later, the dogs are placed in a sling and the exteriorized electrodes are connected to an electric stimulating device (such as Grass S 48 Mod.).
The stimulation parameters such as: delay 0.01 msec, duration 1 msec, frequency 30 Hz, are used.
An electrical stimulus of 1 sec is applied 10 times at 5 sec intervals in order to determine the minimum voltage necessary for eliciting reproducible cough responses. Then, tussive responses to the electrical stimuli are registered at 15, 30, 60, 90, 120, 150, 180, 240, 300 and 360 minutes after oral administration of the compounds of the invention.
The tussive responses are scored as follows: 1: no response; 2: sigh or exaggerated expiration; 3: marked cough; 4: one marked cough and one exaggerated expiration: 5: two marked coughs.
Six dogs are employed for each determination and the mean activity is calculated.
The inhibition percent of the cough response and the duration of activity are compared with codeine.

[4] = guinea pig cough test, i.p., 60 minutes after treatment
[5] = Cavia porcellus, ip, 1 h, guinea pig cough test, i.p., 60 minutes after treatment, read-out: ED50
[6] = Table 1, 0.153 M, oral, AUC over seven days

3-acetylthioacetyl-2-[2'-(o-acetylthioacetoxyphenyl)ethyl]thiazolidine
Fucose (mg/ml), AUC as a 100% compared to bronchitic controls ([1]; oral): 128% | Galactose (mg/ml), AUC as a 100% compared to bronchitic controls ([1]; oral): 67% | Mucus production (ml/kg), AUC as a 100% compared to bronchitic controls ([1]; oral): 76.1% | Phospholipids (mg/ml), AUC as a 100% compared to bronchitic controls ([1]; oral): 47.2% | Protein (mg/ml), AUC as a 100% compared to bronchitic controls ([1]; oral): 48% | Sialic acid (mg/ml), AUC as a 100% compared to bronchitic controls ([1]; oral): 36.2% | Viscosity (cps), AUC as a 100% compared to bronchitic controls ([1]; oral): 70% | mucus regulating activity (in words) [1]: particularly favourable increase of their mucus regulating activity | decrease of the antitussive potency in comparison with the reference compound 3 ([2]; guinea pig cough test): ~10 times | ED50 [2, 4]: 61 mg/kg

COc1ccccc1OCC1NCCS1 (centres unmarked) [2-(o-methoxyphenoxy)-methyl-thiazolidine, 2-(o-methoxyphenoxymethyl)thiazolidine]
Fucose (mg/ml), AUC as a 100% compared to bronchitic controls ([1]; oral): 76% | Galactose (mg/ml), AUC as a 100% compared to bronchitic controls ([1]; oral): 59% | Mucus production (ml/kg), AUC as a 100% compared to bronchitic controls ([1]; oral): 124% | Phospholipids (mg/ml), AUC as a 100% compared to bronchitic controls ([1]; oral): 106% | Protein (mg/ml), AUC as a 100% compared to bronchitic controls ([1]; oral): 92% | Sialic acid (mg/ml), AUC as a 100% compared to bronchitic controls ([1]; oral): 85% | Viscosity (cps), AUC as a 100% compared to bronchitic controls ([1]; oral): 116%

COc1ccccc1OCC1SCCN1C(=O)CSC(=O)CCC1CCCCC1 (centres unmarked) [3-(3'-cyclohexyl)propionylthioacetyl-2-(o-methoxyphenoxy)methyl-thiazolidine]
ED50 [2, 5]: 0.5 to 4 mg/kg

CCOCCOCC(=O)N1CCSC1COc1ccccc1OC (centres unmarked) [3-(3,6-dioxa-capriloyl)-2-(O-methoxyphenoxy)methyl-thiazolidine]
mucus regulating effectiveness compared with carboxymethylcysteine [1]: at least as effective as 0.153M of 5-carboxymethylcysteine

COc1ccccc1OCC1SCCN1C(=O)CCn1ccnc1 (centres unmarked) [3-(3-imidazol-1-yl)-propionyl-2-(O-methoxyphenoxy)methylthiazolidine]
mucus regulating effectiveness compared with carboxymethylcysteine [1]: at least as effective as 0.153M of 5-carboxymethylcysteine

C#CCOc1ccccc1OCC1SCCN1C(=O)CCn1ccnc1 (centres unmarked) [3-(3-imidazol-1-yl)-propionyl-2-(O-propargyloxyphenoxy)methyl-thiazolidine]
mucus regulating effectiveness compared with carboxymethylcysteine [1]: at least as effective as 0.153M of 5-carboxymethylcysteine

CCOCCSCC(=O)N1CCSC1COc1ccccc1OC (centres unmarked) [3-(3-thia-6-oxa-capriloyl)-2-(O-methoxyphenoxy)methylthiazolidine]
mucus regulating effectiveness compared with carboxymethylcysteine [1]: at least as effective as 0.153M of 5-carboxymethylcysteine

COc1ccccc1OCC1SCCN1C(=O)CN1CCN(C)CC1 (centres unmarked) [3-(4'-methyl-piperazin-1'-yl)acetyl-2-(o-methoxyphenoxy)methyl-thiazolidine]
ED50 [2, 5]: 0.5 to 4 mg/kg

COc1ccccc1OCC1SCCN1C(=O)CSC(=O)CN1CCN(C)CC1 (centres unmarked) [3-(4'-methylpiperazine-1-yl)acetylthioacetyl-2-(o-methoxyphenoxy)methylthiazolidine]
ED50 [2, 5]: 0.5 to 4 mg/kg

CC(=O)SCC(=O)N1CCSC1COc1ccccc1O (centres unmarked) [3-acetylthio-acetyl-2-[(o-hydroxyphenoxy)methyl]thiazolidine]
Fucose (mg/ml), AUC as a 100% compared to bronchitic controls ([1]; oral): 90.8% | Galactose (mg/ml), AUC as a 100% compared to bronchitic controls ([1]; oral): 38.2% | Mucus production (ml/kg), AUC as a 100% compared to bronchitic controls ([1]; oral): 99.2% | Phospholipids (mg/ml), AUC as a 100% compared to bronchitic controls ([1]; oral): 47% | Protein (mg/ml), AUC as a 100% compared to bronchitic controls ([1]; oral): 62.0% | Sialic acid (mg/ml), AUC as a 100% compared to bronchitic controls ([1]; oral): 49.5% | Viscosity (cps), AUC as a 100% compared to bronchitic controls ([1]; oral): 31.9% | mucus regulating activity (in words) [1]: particularly favourable increase of their mucus regulating activity | ED50 [2, 5]: 60 mg/kg | decrease of the antitussive potency in comparison with the reference compound 3 ([2]; guinea pig cough test): ~10 times

CC(=O)SCC(=O)N1CCSC1COc1ccccc1C (centres unmarked) [3-acetylthioacetyl-2-(o-tolyloxymethyl)thiazolidine]
fucose content in the mucus (in words) ([1]; tested as mucus regulator): increases | galactose content in the mucus (in words) ([1]; tested as mucus regulator): poorly affecting | protein content in the mucus (in words) ([1]; tested as mucus regulator): increases | sialic content in the mucus (in words) ([1]; tested as mucus regulator): poorly affecting | viscosity of the mucus (in words) ([1]; tested as mucus regulator): increases | antitussive properties (in words) [2]: devoid of any antitussive properties

COc1ccccc1OCC1SCCN1C(=O)CSC(=O)c1ccccc1 (centres unmarked) [3-benzoylthioacetyl-2-(o-methoxyphenoxy)methyl-thiazolidine]
ED50 [2, 5]: 0.5 to 4 mg/kg

CC(=O)SCC(=O)Oc1ccccc1OCC1SCCN1C(=O)CSC(C)=O (stereo not drawn) [3-α-acetylthioacetyl-2-[(o-α-acetylthioacetoxyphenoxy)methyl]thiazolidine]
Fucose (mg/ml), AUC as a 100% compared to bronchitic controls ([1]; oral): 147.9% | Galactose (mg/ml), AUC as a 100% compared to bronchitic controls ([1]; oral): 72.9% | Mucus production (ml/kg), AUC as a 100% compared to bronchitic controls ([1]; oral): 74.0% | Phospholipids (mg/ml), AUC as a 100% compared to bronchitic controls ([1]; oral): 49.8% | Protein (mg/ml), AUC as a 100% compared to bronchitic controls ([1]; oral): 46.9% | Sialic acid (mg/ml), AUC as a 100% compared to bronchitic controls ([1]; oral): 31.3% | Viscosity (cps), AUC as a 100% compared to bronchitic controls ([1]; oral): 71.9% | mucus regulating activity (in words) [1]: particularly favourable increase of their mucus regulating activity | ED50 [2, 5]: 162 mg/kg | decrease of the antitussive potency in comparison with the reference compound 3 ([2]; guinea pig cough test): ~10 times

COc1ccccc1SCC1SCCN1C(=O)CSC(C)=O (stereo not drawn) [3α-acetylthioacetyl-2-(o-methoxyphenylthio)methyl-thiazolidine]
ED50 [2, 5]: 0.5 to 4 mg/kg

CCOC(=O)[C@@H]1CSC(COc2ccccc2OC)N1 (some centres unmarked) [4-carbethoxy-2-(o-methoxyphenoxy)methyl-thiazolidine]
ED50 [2, 4]: inactive | duration of action ([3]; dog cough test, in words): short | % inhibition of cough stimulus ([3]; dog, oral, dose not given): 26.7%

O=C(O)C1CSC(COc2ccccc2O)N1 (centres unmarked) [4-carboxy-2-[(o-hydroxyphenoxy)methyl]-thiazolidine]
mucus regulating activity (in words) [1]: high mucus regulating activity | antitussive properties (in words) [2]: reduced antitussive potency

N[C@@H](CSCC(=O)O)C(=O)O [S--carboxymethyl cysteine, S-carboxymethyl cysteine, reference compound]
Fucose mg/ml, AUC as a % compared to bronchitic controls [1, 6]: 56% | Galactose mg/ml, AUC as a % compared to bronchitic controls [1, 6]: 64% | Mucus production ml/kg, AUC as a % compared to bronchitic controls [1, 6]: 97% | Phospholipids mg/ml, AUC as a % compared to bronchitic controls [1, 6]: 108% | Protein mg/ml, AUC as a % compared to bronchitic controls [1, 6]: 105% | Sialic acid mg/ml, AUC as a % compared to bronchitic controls [1, 6]: 60% | Viscosity (cps), AUC as a % compared to bronchitic controls [1, 6]: 52%

COc1ccc2c3c1O[C@H]1[C@@H](O)C=C[C@H]4[C@@H](C2)N(C)CC[C@@]341 [codeine phosphate, reference compound]
ED50 ([2]; Cavia porcellus, ip, 1 h): ~23 mg/kg | % delay of the first cough ([2]; guinea pig cough test, control 100): 170% | duration of inhibition of the cough stimulus ([3]; dog, 8 mg/kg): 2 to 4 h | inhibition of the cough stimulus ([3]; dog, 8 mg/kg): 52%
